This note sets out measurements from ChEMBL document CHEMBL5055687, “Improved 5-HT2 Selective Receptor Modulators for the Treatment of Psychological Disorders” (ACS Med Chem Lett, 2021).

Common to all, as to format: cell-based
Experiment [1] deals with T1, 5-hydroxytryptamine receptor 2A (Homo sapiens, UniProt P28223). In words: Modulation of human 5HT2A expressed in HEK293T cells co-transfected with Galphaq-RLuc8, Ggamma1-GFP2 and Gbeta1 assessed as dissociation of Galphaq from Ggamma1 preincubated for 1 hr followed by addition of coelenterazine 400a substrate and measured after 15 mins by BRET assay relative to 5-HT. Conditions: filed as modulator, time 75.0 min. (Bioluminescence resonance energy transfer reports proximity on the nanometre scale.)
T1 sequence (P28223 whole entry): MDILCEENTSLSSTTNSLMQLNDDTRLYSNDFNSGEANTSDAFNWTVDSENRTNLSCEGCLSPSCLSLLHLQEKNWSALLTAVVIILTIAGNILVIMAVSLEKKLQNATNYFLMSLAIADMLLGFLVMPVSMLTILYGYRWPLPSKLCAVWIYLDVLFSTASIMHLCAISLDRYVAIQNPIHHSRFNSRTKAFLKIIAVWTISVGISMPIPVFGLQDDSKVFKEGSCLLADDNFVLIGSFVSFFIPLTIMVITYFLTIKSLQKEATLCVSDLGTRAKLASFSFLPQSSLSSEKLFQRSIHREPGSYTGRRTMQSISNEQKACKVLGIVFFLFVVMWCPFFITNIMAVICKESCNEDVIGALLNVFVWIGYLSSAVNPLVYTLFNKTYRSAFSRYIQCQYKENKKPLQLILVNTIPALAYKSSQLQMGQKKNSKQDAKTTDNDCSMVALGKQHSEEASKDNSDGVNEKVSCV

Experiment [2] concerns the target T2, 5-hydroxytryptamine receptor 2B (Homo sapiens, UniProt P41595). Briefly: Modulation of human 5HT2B expressed in HEK293T cells co-transfected with Galphaq-RLuc8, Ggamma1-GFP2 and Gbeta1 assessed as dissociation of Galphaq from Ggamma1 preincubated for 1 hr followed by addition of coelenterazine 400a substrate and measured after 15 mins by BRET assay relative to 5-HT. Conditions: time 75.0 min; call rule not given here.

Experiment [3] concerns the target T1, 5-hydroxytryptamine receptor 2A. Briefly: Modulation of human 5HT2A expressed in HEK293T cells co-transfected with Galphaq-RLuc8, Ggamma1-GFP2 and Gbeta1 assessed as dissociation of Galphaq from Ggamma1 preincubated for 1 hr followed by addition of coelenterazine 400a substrate and measured after 15 mins by BRET assay.
The target in experiment [4] is T2, 5-hydroxytryptamine receptor 2B. In words: Modulation of human 5HT2B expressed in HEK293T cells co-transfected with Galphaq-RLuc8, Ggamma1-GFP2 and Gbeta1 assessed as dissociation of Galphaq from Ggamma1 preincubated for 1 hr followed by addition of coelenterazine 400a substrate and measured after 15 mins by BRET assay.
In experiment [5] the target is T3, 5-hydroxytryptamine receptor 2C (Homo sapiens, UniProt P28335).
T3 sequence (P28335 whole entry): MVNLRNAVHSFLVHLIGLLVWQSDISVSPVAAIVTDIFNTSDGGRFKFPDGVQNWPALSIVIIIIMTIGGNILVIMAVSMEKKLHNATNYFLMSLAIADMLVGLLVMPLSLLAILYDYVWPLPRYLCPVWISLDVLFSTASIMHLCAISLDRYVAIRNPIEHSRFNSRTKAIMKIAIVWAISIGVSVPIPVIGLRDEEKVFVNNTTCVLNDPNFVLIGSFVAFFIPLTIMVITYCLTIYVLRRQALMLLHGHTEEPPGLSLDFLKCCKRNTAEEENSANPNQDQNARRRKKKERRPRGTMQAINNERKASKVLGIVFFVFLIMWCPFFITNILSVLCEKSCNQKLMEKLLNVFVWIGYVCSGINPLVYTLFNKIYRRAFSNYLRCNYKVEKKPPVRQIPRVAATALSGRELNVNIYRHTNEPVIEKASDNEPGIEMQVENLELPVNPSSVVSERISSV
In words: Modulation of human 5HT2C expressed in HEK293T cells co-transfected with Galphaq-RLuc8, Ggamma1-GFP2 and Gbeta1 assessed as dissociation of Galphaq from Ggamma1 preincubated for 1 hr followed by addition of coelenterazine 400a substrate and measured after 15 mins by BRET assay.

T2 sequence (P41595 whole entry): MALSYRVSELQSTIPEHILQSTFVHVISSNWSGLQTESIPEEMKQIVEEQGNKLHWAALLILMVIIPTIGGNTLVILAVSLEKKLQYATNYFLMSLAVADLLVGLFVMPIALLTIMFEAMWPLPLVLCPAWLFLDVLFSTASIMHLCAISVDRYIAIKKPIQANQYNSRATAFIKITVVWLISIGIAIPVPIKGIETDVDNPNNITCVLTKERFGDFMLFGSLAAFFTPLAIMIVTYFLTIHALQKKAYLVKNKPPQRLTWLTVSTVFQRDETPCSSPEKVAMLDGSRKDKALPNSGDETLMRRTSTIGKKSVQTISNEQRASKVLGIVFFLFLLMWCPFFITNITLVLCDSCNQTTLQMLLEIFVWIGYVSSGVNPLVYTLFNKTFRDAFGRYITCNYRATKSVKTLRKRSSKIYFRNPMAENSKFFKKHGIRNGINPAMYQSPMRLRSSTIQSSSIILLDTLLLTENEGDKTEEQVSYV

With `CCN(C)CCc1cn(C)c2cccc(O)c12`, the Efficacy in experiment [1] is 66%; in experiment [2] (filed as modulator) it was 44%.
For `CC(C)N(C)CCc1cn(C)c2cccc(O)c12` the same measures were 85% and 83%.
As for `CN(C)CCc1c[nH]c2cccc(O)c12`, the Efficacy in experiment [1] is 82%; in experiment [2] (filed as modulator), 63%.
For `CN(CCc1cn(C)c2cccc(O)c12)CC1CC1`, the Efficacy in experiment [1] was 55%; in experiment [2], 19%.
The IC50 is the point on the concentration scale where inhibition reaches its midpoint. With `CN(C)CCc1cn(C)c2cccc(O)c12`, the IC50 in experiment [3] stood at 86.3 nM; in experiment [4] (read-out: IC50) it was 31.7 nM; in experiment [5], 9.51 nM. In addition, the Efficacy in experiment [1] came out at 73%; in experiment [2] (filed as modulator) it was 40%.
As for `CN(C)CCc1cn(CC2CC2)c2cccc(O)c12`, the IC50 result in experiment [4] (hek293t) was “Not Active”. For the same compound, the Efficacy in experiment [1] is 29%.
Consider `CN(C)CCc1cn(CCF)c2cccc(O)c12`, for which the IC50 in experiment [3] was 188 nM; in experiment [4] (hek293t), “Not Active”; in experiment [5], 2.7 nM. Moreover, the Efficacy in experiment [1] was determined as 48%.
In the case of `CCn1cc(CCN(C)C)c2c(O)cccc21`, the IC50 in experiment [3] was 196 nM; in experiment [4] (hek293t) it was “Not Active”; in experiment [5], 0.9 nM. Also, the Efficacy in experiment [1] is 65%.
